Here are results for seven compounds from ChEMBL document CHEMBL3875217, “Identification of a melampomagnolide B analog as a potential lead molecule for treatment of acute myelogenous leukemia” (Bioorg Med Chem, 2017).

Data set [1] is described as follows: Antileukemic activity against human M9-ENL1 cells assessed as increase in apoptotic cell level after 24 hrs by Annexin V/propidium iodide/7-AAD based FACS analysis. Format: functional. The note with it: M9-ENL1, 24 h. In general terms: In flow cytometry, cells or beads pass a laser one at a time.
Data set [2] is described as follows: Apparent elimination half life in BALB/c mouse at 200 mg/kg, po by LC/MS/MS analysis. Type of data set: ADME, organism-based. The settings on record: in vivo.
Data set [3] is described as follows: Tmax in BALB/c mouse at 200 mg/kg, po by LC/MS/MS analysis. Format: ADME, organism-based. The settings on record: in vivo.
A short description of data set [4]: Drug uptake in BALB/c mouse blood at 200 mg/kg, po after 15 mins by LC/MS/MS analysis. The settings on record: in vivo, 0.25 h. Type of data set: ADME, organism-based.
Data set [5] can be described thus: AUC in BALB/c mouse at 200 mg/kg, po by LC/MS/MS analysis. Format: ADME, organism-based. The settings on record: in vivo.
Data set [6] is described as follows: Total clearance in BALB/c mouse at 20 mg/kg, iv or 200 mg/kg, po by LC/MS/MS analysis. Format: ADME, organism-based. The note with it: in vivo.
The nature of data set [7]: Oral bioavailability in BALB/c mouse at 200 mg/kg by LC/MS/MS analysis. The settings on record: in vivo. Type of data set: ADME, organism-based.
Data set [8] in a line: Cmax in BALB/c mouse at 200 mg/kg, po by LC/MS/MS analysis. Type of data set: ADME, organism-based. Set-up: dose 200 mg/kg, route oral. The note with it: in vivo.
The nature of data set [9]: Drug uptake in BALB/c mouse Plasma at 271.2 mg/kg, po after 15 mins by LC/MS/MS analysis. The note with it: in vivo, 0.25 h. Format: ADME, organism-based.
Data set [10] can be described thus: Potency index, ration of parthenolide EC50 to compound EC50 for human M9-ENL1 cells. Type of data set: functional.
The nature of data set [11]: Oral bioavailability in BALB/c mouse at 271.2 mg/kg by LC/MS/MS analysis. Format: ADME, organism-based. The settings on record: in vivo.
A short description of data set [12]: Drug uptake in BALB/c mouse blood at 271.2 mg/kg, po after 15 mins by LC/MS/MS analysis. Format: ADME, organism-based. The note with it: in vivo, 0.25 h.
Data set [13] can be described thus: Tmax in BALB/c mouse at 271.2 mg/kg, po by LC/MS/MS analysis. Type of data set: ADME, organism-based. The settings on record: in vivo.
Data set [14] in a line: Total clearance in BALB/c mouse at 27.1 mg/kg, iv or 271.2 mg/kg, po by LC/MS/MS analysis. Type of data set: ADME, organism-based. The note with it: in vivo.
A short description of data set [15]: Apparent elimination half life in BALB/c mouse at 271.2 mg/kg, po by LC/MS/MS analysis. The settings on record: in vivo. Format: ADME, organism-based.
Data set [16] is described as follows: Cmax in BALB/c mouse at 271.2 mg/kg, po by LC/MS/MS analysis. Format: ADME, organism-based. Set-up: dose 271.2 mg/kg, route oral. The note with it: in vivo.

One may read the EC50 as the midpoint of the concentration-response curve. Consider `C=C1C(=O)O[C@H]2[C@H]1CC/C(COC(=O)n1cc(C)nc1CC)=C\CC[C@@]1(C)O[C@@H]21`, for which the EC50 in data set [1] was determined as 1.4 µM.
On the same count and under the same terms, under `C=C1C(=O)O[C@H]2[C@H]1CC/C(COC(=O)n1ccnc1C)=C\CC[C@@]1(C)O[C@@H]21` stands 2.1 µM.
What is called Tmax is the time at which the peak concentration occurs. Broadly, the AUC is the area under the concentration-time curve, a measure of exposure. Low readings indicate low exposure, high ones high exposure. For orientation: Cmax means the peak of the concentration-time curve. Regarding `C=C1C(=O)O[C@H]2[C@H]1CC/C(CO)=C\CC[C@@]1(C)O[C@@H]21`, the “betat1/2(app)” value in data set [2] worked out at 61.8 min. For the same compound, the Tmax in data set [3] was 2 h. Further, the Drug uptake result in [4] is listed as “Active”. For the same compound, in [5], the AUC is 868.3 µmol·min/L. In [6], this compound displayed a clearance of 4.2 L/h/kg. The compound also came in with a F in data set [7] of 6.7%. In addition, the EC50 in [1] was found to be 15.5 µM. In addition, in [8], the highest level (Cmax) was 4.5 µM.
As for `C=C1C(=O)O[C@@H]2[C@H]3O[C@]3(C)CC/C=C(\C)CC[C@@H]12`, in data set [1], the EC50 came to 7 µM.
Take `C=C1C(=O)O[C@H]2[C@H]1CC/C(COC(=O)NCc1nc3ccccc3[nH]1)=C\CC[C@@]1(C)O[C@@H]21`: the 50% effective concentration (EC50) in data set [1] came out at 3.9 µM.
In the case of `C=C1C(=O)O[C@H]2[C@H]1CC/C(COC(=O)Nc1nc3ccccc3[nH]1)=C\CC[C@@]1(C)O[C@@H]21`, the EC50 in data set [1] came to 1.6 µM.
As for `C=C1C(=O)O[C@H]2[C@H]1CC/C(COC(=O)n1ccnc1)=C\CC[C@@]1(C)O[C@@H]21`, the Drug uptake result in data set [9] and in data set [12] was “Active” each time. Also, the “Ratio EC50” value in [10] was 8. The compound also came in with a F in data set [11] of 45.5%. In [5], this compound showed an AUC of 2137.5 µmol·min/L. Also, the Tmax in [13] is 0.502 h. The clearance in [14] stood at 12 L/h/kg. The half-maximal effective concentration (EC50) in data set [1] is 0.9 µM. For the same compound, in [15], the “betat1/2(app)” value came to 92.3 min. The compound further came in with a Cmax in data set [16] of 10.6 µM.
